The nature of data set [1]: Solubility in buffer. The conditions noted are these: 80 mM ammonium bicarbonate buffer, pH 7.7, Solubility [mg/mL] 80 mM AmBicarb pH7.7, Table 2; 80 mM AmBicarb pH7.7.
Data set [2] has as its target GLP-1R (Homo sapiens, UniProt P43220). The data set is described as follows: GLP-1 receptor-mediated cAMP induction, luciferase reporter gene antagonism assay. It is filed as cell-based. The arrangement: host or cells: HEK 293. The conditions noted are these: Table 2; C16 linker variants of 9-40amide Jant4 K40[X]; antagonism of 0.05 nM GLP-1, HEK 293 cells; read-out: Biactivity IC50. As to the method:
GLP-1 Receptor-Mediated cAMP Induction The ability of peptides to stimulate or block cAMP induction at the GLP-1 receptor was examined by a luciferase-based reporter gene assay. Cotransfection of HEK 293 cells with the human GLP-1 receptor (Open Biosystems) and a cAMPinducible (cAMPresponsive element) luciferase gene constituted the cellular construct where receptor activation could be measured. Bioassays were performed by first serum depriving the cells for 16 h in 0.25% bovine growth serum (HyClone)-supplemented Dulbecco's modified Eagle's medium (Invitrogen) and then adding serial dilutions of the peptides over the appropriate concentration ranges in 96-well poly-D-lysine-coated plates (BD Biosciences). For antagonism assays, a constant concentration of GLP-1 (0.05 nM) was added to the assay plate after the diluted peptides. Incubation continued for 5 h at 37° C., 5% CO2 and was followed by the addition of an equivalent volume (100 μL) of LucLite luminescence substrate reagent (Perkin-Elmer). MicroBeta 1450 liquid scintillation counting (Perkin-Elmer) quantified the luminescence signal in counts per second (cps) after shaking the plate at 600 rpm for 3 min. Data was plotted using Origin software (OriginLab) and the effective concentration 50 (EC50) or inhibitory concentration 50 (IC50) was determined by sigmoidal fitting. Potency was determined by comparative analysis of relative EC50 or IC50 values. Each experiment was repeated at least three times with each sample assayed in duplicate.
For orientation: A reporter such as luciferase makes a cellular process visible.

Each structure is given as a SMILES string. Starred links: 1 amine or outer side, 2 acyl side, 3 side chain; linkers in the order of their positions; H or OH if unused. Residues, ends and D or L forms follow the SMILES beside them. Groups on a side chain read outwards from the residue. *: point of attachment. γGlu = O=C(O)[C@H](CCC(=O)[*:2])N[*:1]; Palmitoyl = CCCCCCCCCCCCCCCC(=O)*; AEEA = NCCOCCOCC(=O)O

GLP-1R, sequence (P43220 24-463): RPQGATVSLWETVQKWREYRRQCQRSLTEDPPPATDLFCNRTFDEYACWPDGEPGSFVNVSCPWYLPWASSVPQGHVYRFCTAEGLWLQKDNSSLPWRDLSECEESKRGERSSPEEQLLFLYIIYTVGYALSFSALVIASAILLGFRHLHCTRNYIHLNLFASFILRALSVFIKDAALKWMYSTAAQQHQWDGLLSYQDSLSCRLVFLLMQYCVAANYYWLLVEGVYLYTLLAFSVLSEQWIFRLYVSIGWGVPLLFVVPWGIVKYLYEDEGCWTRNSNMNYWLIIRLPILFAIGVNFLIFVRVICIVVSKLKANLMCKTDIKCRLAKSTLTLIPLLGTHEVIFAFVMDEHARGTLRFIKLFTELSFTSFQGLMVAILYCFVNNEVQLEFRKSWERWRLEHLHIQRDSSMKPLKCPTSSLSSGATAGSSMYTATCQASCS

For the molecule `CCCCCCCCCCCCCCCC(=O)N[C@@H](CCC(=O)NCCCC[C@H](NC(=O)[C@H](CO)NC(=O)[C@@H]1CCCN1C(=O)[C@@H]1CCCN1C(=O)[C@@H]1CCCN1C(=O)[C@H](C)NC(=O)CNC(=O)[C@H](CO)NC(=O)[C@H](CO)NC(=O)[C@@H]1CCCN1C(=O)CNC(=O)CNC(=O)[C@H](CCCCN)NC(=O)[C@@H](NC(=O)[C@H](CC(C)C)NC(=O)[C@H](Cc1c[nH]c2ccccc12)NC(=O)[C@H](C)NC(=O)[C@@H](NC(=O)[C@H](Cc1ccccc1)NC(=O)[C@H](CCC(=O)O)NC(=O)[C@H](CCCNC(=N)N)NC(=O)[C@@H](NC(=O)[C@H](C)NC(=O)[C@H](CCC(N)=O)NC(=O)[C@H](CCC(=O)O)NC(=O)[C@H](CCC(=O)O)NC(=O)[C@H](CC(C)C)NC(=O)[C@H](Cc1ccc(O)cc1)NC(=O)[C@H](CO)NC(=O)[C@H](CO)NC(=O)[C@@H](NC(=O)[C@@H](N)CC(=O)O)C(C)C)C(C)C)[C@@H](C)CC)C(C)C)C(N)=O)C(=O)O` [compound 52] (H-DVSSYLEEQAVREFIAWLVKGGPSSGAPPPSK([γGlu-Palmitoyl])-NH2; N-terminus assumed), the solubility (usually the concentration that dissolves in the medium under given conditions) in data set [1] is more than 20 mg/mL. For the same molecule, in data set [2], the IC50 (in general, the midpoint of a concentration-inhibition curve) was determined as 12 nM.

The molecule `CCCCCCCCCCCCCCCC(=O)N[C@@H](CCC(=O)N[C@@H](CCC(=O)NCCCC[C@H](NC(=O)[C@H](CO)NC(=O)[C@@H]1CCCN1C(=O)[C@@H]1CCCN1C(=O)[C@@H]1CCCN1C(=O)[C@H](C)NC(=O)CNC(=O)[C@H](CO)NC(=O)[C@H](CO)NC(=O)[C@@H]1CCCN1C(=O)CNC(=O)CNC(=O)[C@H](CCCCN)NC(=O)[C@@H](NC(=O)[C@H](CC(C)C)NC(=O)[C@H](Cc1c[nH]c2ccccc12)NC(=O)[C@H](C)NC(=O)[C@@H](NC(=O)[C@H](Cc1ccccc1)NC(=O)[C@H](CCC(=O)O)NC(=O)[C@H](CCCNC(=N)N)NC(=O)[C@@H](NC(=O)[C@H](C)NC(=O)[C@H](CCC(N)=O)NC(=O)[C@H](CCC(=O)O)NC(=O)[C@H](CCC(=O)O)NC(=O)[C@H](CC(C)C)NC(=O)[C@H](Cc1ccc(O)cc1)NC(=O)[C@H](CO)NC(=O)[C@H](CO)NC(=O)[C@@H](NC(=O)[C@@H](N)CC(=O)O)C(C)C)C(C)C)[C@@H](C)CC)C(C)C)C(N)=O)C(=O)O)C(=O)O` [compound 53] (H-DVSSYLEEQAVREFIAWLVKGGPSSGAPPPSK([γGlu-γGlu-Palmitoyl])-NH2) returned a solubility in data set [1] of more than 20 mg/mL. In data set [2], the IC50 amounted to 13 nM.

As for `CCCCCCCCCCCCCCCC(=O)N[C@@H](CCC(=O)N[C@@H](CCC(=O)N[C@@H](CCC(=O)N[C@@H](CCC(=O)NCCCC[C@H](NC(=O)[C@H](CO)NC(=O)[C@@H]1CCCN1C(=O)[C@@H]1CCCN1C(=O)[C@@H]1CCCN1C(=O)[C@H](C)NC(=O)CNC(=O)[C@H](CO)NC(=O)[C@H](CO)NC(=O)[C@@H]1CCCN1C(=O)CNC(=O)CNC(=O)[C@H](CCCCN)NC(=O)[C@@H](NC(=O)[C@H](CC(C)C)NC(=O)[C@H](Cc1c[nH]c2ccccc12)NC(=O)[C@H](C)NC(=O)[C@@H](NC(=O)[C@H](Cc1ccccc1)NC(=O)[C@H](CCC(=O)O)NC(=O)[C@H](CCCNC(=N)N)NC(=O)[C@@H](NC(=O)[C@H](C)NC(=O)[C@H](CCC(N)=O)NC(=O)[C@H](CCC(=O)O)NC(=O)[C@H](CCC(=O)O)NC(=O)[C@H](CC(C)C)NC(=O)[C@H](Cc1ccc(O)cc1)NC(=O)[C@H](CO)NC(=O)[C@H](CO)NC(=O)[C@@H](NC(=O)[C@@H](N)CC(=O)O)C(C)C)C(C)C)[C@@H](C)CC)C(C)C)C(N)=O)C(=O)O)C(=O)O)C(=O)O)C(=O)O` [compound 54] (H-DVSSYLEEQAVREFIAWLVKGGPSSGAPPPSK([γGlu-γGlu-γGlu-γGlu-Palmitoyl])-NH2), in data set [1], the solubility was more than 20 mg/mL. Moreover, in data set [2], the IC50 turned out to be 21 nM.

In the case of `CCCCCCCCCCCCCCCC(=O)N[C@@H](CCC(=O)N[C@@H](CCC(=O)N[C@@H](CCC(=O)N[C@@H](CCC(=O)N[C@@H](CCC(=O)N[C@@H](CCC(=O)NCCCC[C@H](NC(=O)[C@H](CO)NC(=O)[C@@H]1CCCN1C(=O)[C@@H]1CCCN1C(=O)[C@@H]1CCCN1C(=O)[C@H](C)NC(=O)CNC(=O)[C@H](CO)NC(=O)[C@H](CO)NC(=O)[C@@H]1CCCN1C(=O)CNC(=O)CNC(=O)[C@H](CCCCN)NC(=O)[C@@H](NC(=O)[C@H](CC(C)C)NC(=O)[C@H](Cc1c[nH]c2ccccc12)NC(=O)[C@H](C)NC(=O)[C@@H](NC(=O)[C@H](Cc1ccccc1)NC(=O)[C@H](CCC(=O)O)NC(=O)[C@H](CCCNC(=N)N)NC(=O)[C@@H](NC(=O)[C@H](C)NC(=O)[C@H](CCC(N)=O)NC(=O)[C@H](CCC(=O)O)NC(=O)[C@H](CCC(=O)O)NC(=O)[C@H](CC(C)C)NC(=O)[C@H](Cc1ccc(O)cc1)NC(=O)[C@H](CO)NC(=O)[C@H](CO)NC(=O)[C@@H](NC(=O)[C@@H](N)CC(=O)O)C(C)C)C(C)C)[C@@H](C)CC)C(C)C)C(N)=O)C(=O)O)C(=O)O)C(=O)O)C(=O)O)C(=O)O)C(=O)O` [compound 55] (H-DVSSYLEEQAVREFIAWLVKGGPSSGAPPPSK([γGlu-γGlu-γGlu-γGlu-γGlu-γGlu-Palmitoyl])-NH2; N-terminus assumed), the solubility in data set [1] was more than 20 mg/mL. The IC50 in data set [2] came out at 22 nM.

The molecule `CCCCCCCCCCCCCCCC(=O)N[C@@H](CCC(=O)NCCOCCOCC(=O)N[C@@H](CCC(=O)NCCOCCOCC(=O)NCCCC[C@H](NC(=O)[C@H](CO)NC(=O)[C@@H]1CCCN1C(=O)[C@@H]1CCCN1C(=O)[C@@H]1CCCN1C(=O)[C@H](C)NC(=O)CNC(=O)[C@H](CO)NC(=O)[C@H](CO)NC(=O)[C@@H]1CCCN1C(=O)CNC(=O)CNC(=O)[C@H](CCCCN)NC(=O)[C@@H](NC(=O)[C@H](CC(C)C)NC(=O)[C@H](Cc1c[nH]c2ccccc12)NC(=O)[C@H](C)NC(=O)[C@@H](NC(=O)[C@H](Cc1ccccc1)NC(=O)[C@H](CCC(=O)O)NC(=O)[C@H](CCCNC(=N)N)NC(=O)[C@@H](NC(=O)[C@H](C)NC(=O)[C@H](CCC(N)=O)NC(=O)[C@H](CCC(=O)O)NC(=O)[C@H](CCC(=O)O)NC(=O)[C@H](CC(C)C)NC(=O)[C@H](Cc1ccc(O)cc1)NC(=O)[C@H](CO)NC(=O)[C@H](CO)NC(=O)[C@@H](NC(=O)[C@@H](N)CC(=O)O)C(C)C)C(C)C)[C@@H](C)CC)C(C)C)C(N)=O)C(=O)O)C(=O)O` [compound 59] (H-DVSSYLEEQAVREFIAWLVKGGPSSGAPPPSK([AEEA-γGlu-AEEA-γGlu-Palmitoyl])-NH2; N-terminus assumed) registered a solubility in data set [1] of more than 25 mg/mL. In addition, the IC50 in data set [2] came out at 11 nM.

`CCCCCCCCCCCCCCCC(=O)NCCOCCOCC(=O)N[C@@H](CCC(=O)N[C@@H](CCC(=O)NCCOCCOCC(=O)NCCCC[C@H](NC(=O)[C@H](CO)NC(=O)[C@@H]1CCCN1C(=O)[C@@H]1CCCN1C(=O)[C@@H]1CCCN1C(=O)[C@H](C)NC(=O)CNC(=O)[C@H](CO)NC(=O)[C@H](CO)NC(=O)[C@@H]1CCCN1C(=O)CNC(=O)CNC(=O)[C@H](CCCCN)NC(=O)[C@@H](NC(=O)[C@H](CC(C)C)NC(=O)[C@H](Cc1c[nH]c2ccccc12)NC(=O)[C@H](C)NC(=O)[C@@H](NC(=O)[C@H](Cc1ccccc1)NC(=O)[C@H](CCC(=O)O)NC(=O)[C@H](CCCNC(=N)N)NC(=O)[C@@H](NC(=O)[C@H](C)NC(=O)[C@H](CCC(N)=O)NC(=O)[C@H](CCC(=O)O)NC(=O)[C@H](CCC(=O)O)NC(=O)[C@H](CC(C)C)NC(=O)[C@H](Cc1ccc(O)cc1)NC(=O)[C@H](CO)NC(=O)[C@H](CO)NC(=O)[C@@H](NC(=O)[C@@H](N)CC(=O)O)C(C)C)C(C)C)[C@@H](C)CC)C(C)C)C(N)=O)C(=O)O)C(=O)O` [compound 60] (H-DVSSYLEEQAVREFIAWLVKGGPSSGAPPPSK([AEEA-γGlu-γGlu-AEEA-Palmitoyl])-NH2; N-terminus assumed) came in with a solubility in data set [1] of more than 25 mg/mL. Also, the IC50 in data set [2] was 5 nM.

For the origin of these results see US20240058422A1, “GLUCAGON-LIKE PEPTIDE-1 RECEPTOR ANTAGONISTS” (INDIANA UNIVERSITY RESEARCH AND TECHNOLOGY CORPORATION, priority 2022, published 2024).
